Row | melting point [°C] | SMILES
1 | 163 to 172 | CCOCn1c(-c2ccc(Cl)cc2)c(C(N)=O)c(Br)c1C(F)(F)F
2 | 78 to 80 | CCCCNC(=O)CCC(=O)c1ccccc1
3 | 318 to 321 | COc1cc2c3nn(-c4ccc(Cl)cc4)c(=O)c-3c[nH]c2c(OC)n1
4 | 299 to 302 | CCC1CC(=O)NN=C1c1ccc2nc(-c3ccncc3)[nH]c2c1 (stereo not drawn)
5 | 90 to 91.5 | COc1ccc(/C=C(\C#N)c2cccc(Br)c2)cc1OC1CCCC1
6 | 212 to 214 | COc1ccc(-c2cc(CN3C(=O)c4ccccc4C3=O)c(=O)n(Cc3ccc(Cl)cc3)n2)cc1F
7 | 131 to 132 | Cc1nc(O)cc(C(C)(C)C)n1
8 | 112 to 113 | Oc1ccccc1-c1nnco1
9 | 142 to 144 | C=CCc1[nH]cc(C#N)c1-c1ccc(Cl)cc1C(=O)c1ccccc1F
10 | 93 to 95 | CC(C)(C)OC(=O)N[C@@H](CO)C(=O)N[C@@H](CCC(=O)OCc1ccccc1)C(=O)OCc1ccccc1
11 | 263 to 265 | COCCOc1ccc(N=Nc2c(C#N)[nH]n(-c3ccccc3)c2=O)cc1S(=O)(=O)O
12 | 272 | Cc1cc(-c2cc(C(F)(F)F)n3ncc(-c4nc(-c5cnc(N)nc5)no4)c3n2)ccc1C(F)(F)F
13 | 212 to 214 | N#CN1CCC(=C2c3ccccc3CCc3ccncc32)CC1
14 | 190 to 192 | CC1(C)CC(=O)Nc2ccc(-c3cccc(C#N)c3)cc21
15 | 127 | FC(F)c1cc(-c2cccc(C(F)(F)F)c2)nc2ccnn12
16 | 158 to 163 | Clc1cccc(CNc2n[nH]c3ncnc(Nc4cccc(Cl)c4)c23)c1
17 | 101 to 103 | CCCc1c(OCC(O)COc2ccc3c(=O)cc(C=CC(=O)O)oc3c2CCC)ccc(C(C)=O)c1O (stereo not drawn)
18 | 186 to 187 | Cc1cccc(C(=O)Nc2cn(C3CCCCO3)nc2C(=O)NCCC#N)n1 (stereo not drawn)
19 | 100 to 102 | O=C1C=CC(=Cc2cccs2)O1
20 | 152 to 155 | COC(=O)C(C)(C)Cc1c(SC(C)(C)C)c2cc(OCc3ccc4cnccc4n3)ccc2n1Cc1ccc(Cl)cc1
21 | 168 to 170 | CSc1sc(C(=O)N2CCCCCC2)c2c1C(=O)CC(C)(C)C2
22 | 205 to 207 | O=C1C=C(c2ccc(C(=O)N3Cc4cccn4Cc4ccccc43)cc2)CCC1
23 | 205 to 206 | CC(C)CNC(=O)COc1ccc(C2=NNC(=O)NC2C)cc1Cl (stereo not drawn)
24 | 198 to 200 | O=C(O)CC1(C(=O)O)CCOc2ccc(C(=O)O)cc21 (stereo not drawn)

Row | melting point [°C] | SMILES
25 | 185 to 195 | Nc1cc(Cl)c(Br)cc1[N+](=O)[O-]
26 | 232 | O=C(N[C@H]1CC[C@H](CCN2CCN(c3nccc4c3CCO4)CC2)CC1)c1ccc(-c2ccccc2)cc1
27 | 150 to 151 | C[C@@H](n1ccnn1)[C@](O)(Cn1ccnc1)c1ccc(F)cc1F
28 | 162 to 165 | Cc1cccc(NC(c2ccc(F)c(F)c2)c2ccc3cccnc3c2O)n1 (stereo not drawn)
29 | 183 | COc1cc(CNC(=O)c2ccc3c(c2)c(=O)n(Cc2ccccc2)c(=O)n3C)ccc1O
30 | 73 to 75 | CS(=O)(=O)c1ccc(-c2cc(COCCO)nn2CC2CCCCC2)cc1
31 | 110 to 112 | CC(CO)Nc1cc(Oc2nn(C)c(C(F)(F)F)c2Cl)ccc1N (stereo not drawn)
32 | 157 to 161 | COc1ccc(C2=NN(CC(=O)Nc3cccc(-c4nnc(=O)sc4C)c3)C(=O)[C@H]3CC=CC[C@@H]23)cc1OC (relative stereo)
33 | 129 to 130 | CCOc1ccc(F)c(N2Cc3cnc(NCCCCN(CC)CC)nc3N(C3CCCC3)C2=O)c1F
34 | 102 | COc1ccc(CC(=O)Cc2c(OC)cc(OC)c(CC=C(C)C)c2OCC(=O)O)cc1
35 | 270 to 273 | O=C1CCC(N2Cc3c(OCc4cnc5ccccc5c4)cccc3C2=O)C(=O)N1 (stereo not drawn)
36 | 189 to 190 | CC(=O)N1c2ccccc2CCc2ccc(C(=O)O)cc21
37 | > 200 | CCOC(=O)CC[C@H](NC(=O)c1ccc(CCc2cnc3nc(NC(C)=O)nc(O)c3c2)cc1)C(=O)OCC
38 | 159 to 161 | CN1CCc2c(sc3ncn(CCCl)c(=O)c23)C1
39 | 64 to 70 | CCCCn1nc(C)c(C=O)c1Cc1ccc(-c2ccccc2-c2nnn[nH]2)cc1
40 | 67 to 69 | CC(C)N1C(CO)=Cc2ccsc2S1(=O)=O
41 | 108 to 109 | CCCc1c(OCCCOc2ccc3c(c2CCC)OC(C(=O)O)CC3)ccc(C(C)=O)c1O (stereo not drawn)
42 | 114 to 115 | Cc1ccc(S(=O)(=O)OCC2C(CC(C)C3CCC4C(O)CCCC34C)N(C)OC2(C)C)cc1 (stereo not drawn)
43 | > 280 | O=S(=O)(O)c1ccc(Nc2cnnc3cc(Cl)ccc23)cc1
44 | 93 to 94 | CCOCc1cc2cc(Br)ccc2oc1=Nc1cccc(OC)c1
45 | 152 to 160 | COC(=O)CC[C@H](NC(=O)CCCCCCC1CNc2nc(NC(=O)C(C)(C)C)nc(O)c2C1)C(=O)OC (stereo partly drawn)
46 | 82 to 85 | COC(=O)c1cc(O)c([N+](=O)[O-])cc1C(=O)OC
47 | > 350 | CC(C)(C)OC(=O)c1ccc(C=Cc2cnc3nc(N)nc(N)c3c2)cc1
48 | 265 to 268 | Cc1ccc(-n2c(-c3cc(-c4ccc(S(C)(=O)=O)cc4)c(N4CCOCC4)s3)nc3ccccc3c2=O)cc1

Row | melting point [°C] | SMILES
49 | 175 to 176 | CCNc1ncnc2c1ncn2Cc1c(F)cccc1Cl
50 | 132 to 134 | CCOC(=O)Cc1c([N+](=O)[O-])cc([N+](=O)[O-])c2ccccc12
51 | 135 to 137 | O=c1[nH]c(=O)n(C2CC(O)C(CO)O2)cc1C#CI (stereo not drawn)
52 | 169 to 172 | COc1cc2ncnc(N3CCC(C(C)CN4C(C)=CC(C)=NS4(=O)=O)CC3)c2cc1OC (stereo not drawn)
53 | 84 | OC(CCl)(Cc1ccc(Cl)cc1Cl)c1ccc(-c2ccccc2)cc1 (stereo not drawn)
54 | 142 | Clc1nc(N2CCOCC2)c2nnn(C3CCOCC3)c2n1
55 | > 250 | O=[N+]([O-])c1ccc2c(c1)Sc1cc(OC/C=C/I)ccc1N2
56 | 230 to 232 | CCOC(=O)c1cc2c(=O)n(CC)c3ccc(Cl)cc3n2c1
57 | 149 to 150 | NC(=NCC(F)(F)F)Nc1ccnc(OCCn2ccnc2)n1
58 | 140 to 141 | CCCCCCCNC(=O)N(C)c1cccc(-c2ccc(CC(OCC)C(=O)O)cn2)c1 (stereo not drawn)
59 | 149 to 151 | CCOC(=O)c1cc(-c2ccc3ccccc3c2)[nH]c1N
60 | 116 to 118 | C=C(C)Cc1c(O)c(C)c(C)c2c1CC(C)(C)N2C=O
61 | 249 to 250 | O=C(NCc1ccc(O)cc1)c1[nH]c2ccc(Cl)cc2c1S(=O)(=O)c1ccccc1
62 | 159 to 160 | CN(c1nc(=O)n(C)cc1F)S(=O)(=O)Cc1ccccc1
63 | 252 to 260 | CCNC(=O)c1ccc(N2CCN(Cc3cnc4c(c3)[nH]c(=O)n3cccc43)CC2)cc1
64 | 130 to 132 | Clc1ccc(-c2cc(Cl)nc(Cl)n2)cc1
65 | 90 | O=c1n(CC2CN(Cc3ccccc3)CCO2)c2ccccc2n1-c1ccccc1 (stereo not drawn)
66 | > 250 | O=C(Nc1cccc2c(=O)nc[nH]c12)c1c(Cl)cccc1Cl
67 | 72 | COC(=O)CCCc1cc2nc(C(F)(F)F)ccc2n1S(=O)(=O)c1cccc(OC(F)(F)F)c1
68 | 128 to 130 | CCCNC(=O)c1ccc(-c2ccc3nnn(Cc4ccc5ncccc5c4)c3n2)cc1Cl
69 | 62 to 65 | Cc1cc(Cl)nc(SCC#N)n1
70 | 260 to 261 | COC(=O)c1cc(C(=O)CBr)c(OC(C)=O)cc1NC(=O)C(F)(F)F
71 | 202 to 204 | COC(=O)c1ccc(NS(=O)(=O)c2sc3ccc(F)cc3c2C)c(S(C)(=O)=O)c1
72 | 188 | N#Cc1c(Cl)c2cccnc2n(Cc2ccccc2)c1=O

Row | melting point [°C] | SMILES
73 | 207 to 208 | CCCc1nc2c(N)nc3c(c2n1CC1(O)CCCC1)NCCC3
74 | 154 to 155 | COc1ccc(C2(C#N)CCC(=O)C(C(N)=O)C2)cc1OCCl (stereo not drawn)
75 | 96 to 98 | CS(=O)(=O)NCCn1nccc1-c1ccc(Oc2ccc(F)cc2)cc1
76 | 144 to 146 | CCCCN1C(=O)c2c(c(C)nn2C)Nc2ncccc21
77 | 263 | CC1(C)OC(=C(C#N)C#N)C(C#N)=C1c1ccc(F)cc1
78 | 77 to 78 | CCC(C)[C@H](NC(=O)OCC1CCCC1)C(=O)N[C@@H](Cc1ccccc1)C(=O)CSCc1ccco1 (stereo partly drawn)
79 | 150 to 153 | COc1c(Cl)ccc(-c2cc(N)c(Cl)c(C(=O)NOCc3ccc(F)cc3)n2)c1F
80 | 170 to 172 | CCCSc1ncc(C(C)C(=O)O)n1Cc1ccccc1Cl (stereo not drawn)
81 | 207 to 209 | Cn1c(CCNC(=O)c2cc(F)cc3c2OCOC3)nc(-c2ccncn2)cc1=O
82 | 161 to 165 | O=C(NCc1ncc(Cl)cc1Cl)c1c(Cl)cccc1Cl
83 | 61 to 64 | Cc1ccccc1-c1ccc(C(=O)N2Cc3ccc(C(=O)NCc4csc(-c5ccc(Cl)cc5)n4)n3Cc3ccccc32)cc1C
84 | 98 | CCC1=NNC(C)=C(C(=O)NN)C1c1cccc([N+](=O)[O-])c1 (stereo not drawn)
85 | 169 to 170 | CNC(=O)CCc1nc(-c2ccc(Cl)cc2)co1
86 | 156 | O=C(Nc1ncccn1)c1c(O)ccc2cc(-c3cccc(O)c3)ccc12
87 | 208 to 209 | COC(=O)c1ccc(-c2coc3ccc(-c4nnc(C)o4)cc23)cc1
88 | 90 | Cc1ccc(N)c(S)c1
89 | 86 to 92 | Nc1cc(Oc2ccc(C(F)(F)F)cc2Cl)ccc1[N+](=O)[O-]
90 | 129 to 130 | CN(C)CC(=O)Nc1nc(-c2ccco2)c(C(=O)C2CCOCC2)s1
91 | 35 to 36 | CCCCCOc1ccc(CO)cc1OC(C)=O
92 | 206 to 207 | O=c1[nH]ccc2c1C(c1cccc([N+](=O)[O-])c1)N=C(c1ccccc1)N2 (stereo not drawn)
93 | 110 to 113 | COC(=O)Cc1ccccc1NC(=S)N(C)C

Row | SMILES | melting point [°C]
94 | Cn1cc([N+](=O)[O-])nc1C(Cl)Cl | 153
95 | CC12C=CC(=O)C=C1CCC1C2C(O)CC2(C)C1CCC2(O)C(O)C(=O)O (stereo not drawn) | 213 to 214
96 | CN(C)C(=O)c1nc2n(n1)-c1ccc([N+](=O)[O-])cc1C(c1ccccc1)=NC2 | 209 to 211
97 | c1ccc(-c2ccc(C3CN4CCC3CC4)cc2)cc1 (single isomer, unassigned; (+)) | 85 to 86
98 | C[C@H]1C(=O)C2(CC2)C(=O)N1c1ccc(C#N)c(Cl)c1 | 169 to 172

Reference: a melting point compilation (Tetko et al.; mined from patent text by program, amines drawn as free bases though some values may be those of a salt)
